Data on 9 molecules can be found in ChEMBL document CHEMBL5096212, “Development of a water-soluble ryanodine receptor 1 inhibitor” (Bioorg Med Chem, 2022).

In brackets after ≈: the same amount, converted by molar mass.

Data set [1] is described as follows: Solubility of the compound in saline measured after 48 hrs by HPLC analysis. The data set is classed as physicochemical. Particulars: buffer.
A short description of data set [2]: Inhibition of RyR1 R2163C mutant (unknown origin) expressed in HEK293 cells measured every 10s for 300s by R-CEPIA1er based fluorescence analysis. The data set is classed as cell-based, Homo sapiens.
A short description of data set [3]: Solubility of the compound in 30% EtOH/PBS measured after 48 hrs by HPLC analysis. In kind it is physicochemical.

The solubility is the dissolved amount per volume that the medium holds. Low readings indicate a poorly soluble substance, high ones a readily soluble substance. Molecule `CCCCCCCCn1cc(C(=O)[O-])c(=O)c2cc3c(cc21)OCO3.[Na+]` had a solubility in data set [1] of 0.84 µg/mL.

Usually EC50 stands for the concentration that produces a half-maximal response. Higher therefore signals lower potency in that assay. With `CCCCCCCn1cc(C(=O)O)c(=O)c2cc3c(cc21)OCO3`, in data set [2], it took 11 nM to reach a half-maximal effect (EC50). For the same molecule, the solubility at 48 h in data set [3] was 54 µg/mL (≈ 163 µM).

In data set [2], `CCCCCCn1cc(C(=O)O)c(=O)c2cc3c(cc21)OCO3` came in with an EC50 of 70 nM.

In turn, `CCCCCCCCn1cc(C(=O)O)c(=O)c2c(OC)nccc21` had a half-maximal effective concentration (EC50) in data set [2] of 1700 nM.

Molecule `CCCCCCCn1cc(C(=O)O)c(=O)c2cnc(OC)cc21` displayed an EC50 in data set [2] of 525 nM.

The molecule `CCCCCCCCn1cc(C(=O)O)c(=O)c2cc3c(cc21)OCO3` displayed a half-maximal effective concentration (EC50) in data set [2] of 12 nM. This molecule also showed a solubility at 48 h in data set [3] of 4.7 µg/mL (≈ 13.6 µM).

`CCCCCCCCn1cc(C(=O)[O-])c(=O)c2cnc(OC)cc21.[Na+]` registered a solubility in data set [1] of 27 µg/mL.

As to `CCCCCCCn1cc(C(=O)[O-])c(=O)c2cc3c(cc21)OCO3.[Na+]`, in data set [1], the solubility worked out at 3.9 µg/mL. Against the preceding molecule, the solubility is about 6.9-fold lower.

In turn, `CCCCCCCCn1cc(C(=O)O)c(=O)c2cnc(OC)cc21` gave an EC50 in data set [2] of 68 nM. Moreover, in data set [3], the concentration in solution (solubility at 48 h) came to 414 µg/mL (≈ 1250 µM).
